The assay addresses T1, human FXR (Homo sapiens, UniProt Q96RI1).
T1 construct: expressed in transfected cells
T1 sequence (Q96RI1 1-486): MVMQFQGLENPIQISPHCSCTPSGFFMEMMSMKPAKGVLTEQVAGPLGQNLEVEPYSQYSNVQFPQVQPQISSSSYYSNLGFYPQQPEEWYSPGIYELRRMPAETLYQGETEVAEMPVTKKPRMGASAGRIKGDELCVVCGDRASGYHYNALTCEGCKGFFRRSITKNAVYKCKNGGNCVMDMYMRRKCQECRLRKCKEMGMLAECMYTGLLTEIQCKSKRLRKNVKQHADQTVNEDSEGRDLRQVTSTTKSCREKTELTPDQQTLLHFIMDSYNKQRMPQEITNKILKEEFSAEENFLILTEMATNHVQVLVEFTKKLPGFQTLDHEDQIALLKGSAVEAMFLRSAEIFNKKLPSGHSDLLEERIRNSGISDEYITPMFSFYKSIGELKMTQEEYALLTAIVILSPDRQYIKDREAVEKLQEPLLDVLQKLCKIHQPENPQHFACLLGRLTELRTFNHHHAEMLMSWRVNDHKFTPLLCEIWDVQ
As to the kind of experiment: FXR reporter assay (cellular FXR activities). The class given is cell-based. The note with it: for EC50: FXR reporter cells, 24 hours incubation, luciferase, read-out: Reporter Cell EC50; for Emax: read-out: Emax (%) (GW4064 Emax = 100%). How it is done:
FXR reporter assay was performed to measure cellular FXR activities of the compounds in the present invention. FXR reporter cells with high expression level of human FXR were seeded into 96-well cell culture plates, and incubated for 1-2 hours at 37° C. under 5% CO2 atmosphere. The invented compounds diluted in DMSO with various concentrations were added to the 96-well cell culture plates, and they were incubated for 24 hours at 37° C. under 5% CO2 atmosphere. After incubation, we calculate EC50 by using luciferase substrate.

The EC50 is the midpoint of the concentration-response curve. One may read the Emax as the size of the effect at its maximum, as opposed to the concentration needed.

Take `COc1c(N)cc(C(=O)O)cc1C#Cc1ccc(OCc2c(-c3c(Cl)cccc3Cl)noc2C2CC2)cc1Cl` [Compound I-61, 3-amino-5-((2-chloro-4-((5-cyclopropyl-3-(2,6-dichlorophenyl)isoxazol-4-yl)methoxy)phenyl)ethynyl)-4-methoxybenzoic acid]: the EC50 lay in the range of 0.06 to 0.2 µM and the Emax worked out at 95%.
In the case of `COc1c(N)cc(C#Cc2ccc(OCc3c(-c4c(Cl)cccc4Cl)noc3C3CC3)cc2Cl)cc1C(=O)O` [Compound I-62, 3-amino-5-((2-chloro-4-((5-cyclopropyl-3-(2,6-dichlorophenyl)isoxazol-4-yl)methoxy)phenyl)ethynyl)-2-methoxybenzoic acid], the EC50 fell in the range of 0.06 to 0.2 µM and the Emax was more than 100%.
On to `O=C(O)c1cc(C#Cc2ccc(OCc3c(-c4c(Cl)cccc4Cl)noc3C3CC3)cc2Cl)cc(C2CC2)c1` [Compound I-64, 3-((2-chloro-4-((5-cyclopropyl-3-(2,6-dichlorophenyl)isoxazol-4-yl)methoxy)phenyl)ethynyl)-5-cyclopropylbenzoic acid], for which the EC50 fell in the range of 0.02 to 0.06 µM and the Emax was more than 100%.
In the case of `CCc1cc(C#Cc2ccc(OCc3c(-c4c(Cl)cccc4Cl)noc3C3CC3)cc2Cl)cc(C(=O)O)c1` [Compound I-65, 3-((2-chloro-4-((5-cyclopropyl-3-(2,6-dichlorophenyl)isoxazol-4-yl)methoxy)phenyl)ethynyl)-5-ethylbenzoic acid], the EC50 was 0.06 to 0.2 µM and the Emax is 92%.
For the compound `CC(C)c1cc(C#Cc2ccc(OCc3c(-c4c(Cl)cccc4Cl)noc3C3CC3)cc2Cl)cc(C(=O)O)c1` [Compound I-66, 3-((2-chloro-4-((5-cyclopropyl-3-(2,6-dichlorophenyl)isoxazol-4-yl)methoxy)phenyl)ethynyl)-5-isopropylbenzoic acid], the EC50 fell in the range of 0.06 to 0.2 µM and the Emax was found to be 92%.
Take `O=C(O)c1cc(I)cc(C#Cc2ccc(OCc3c(-c4c(Cl)cccc4Cl)noc3C3CC3)cc2Cl)c1` [Compound I-67, 3-((2-chloro-4-((5-cyclopropyl-3-(2,6-dichlorophenyl)isoxazol-4-yl)methoxy)phenyl)ethynyl)-5-iodobenzoic acid]: the EC50 was 0.02 to 0.06 µM and the Emax was more than 100%.
For the compound `O=C(O)c1cccc(C#Cc2cc(Cl)c(OCc3c(-c4c(Cl)cccc4Cl)noc3C3CC3)cc2Cl)c1` [Compound I-68, 3-((2,5-dichloro-4-((5-cyclopropyl-3-(2,6-dichlorophenyl)isoxazol-4-yl)methoxy)phenyl)ethynyl)benzoic acid], the EC50 is more than 1 µM and the Emax was 96%.
With `O=C(O)c1cccc(C#Cc2ccc(OCc3c(-c4c(Cl)cccc4Cl)noc3C3CC3)c(Cl)c2Cl)c1` [Compound I-69, 3-((2,3-dichloro-4-((5-cyclopropyl-3-(2,6-dichlorophenyl)isoxazol-4-yl)methoxy)phenyl)ethynyl)benzoic acid], the half-maximal effective concentration (EC50) fell in the range of 0.2 to 1 µM and the Emax was more than 100%.
Turning to `O=C(O)c1cccc(C#Cc2c(F)cc(OCc3c(-c4c(Cl)cccc4Cl)noc3C3CC3)cc2Cl)c1` [Compound I-70, 3-((2-chloro-4-((5-cyclopropyl-3-(2,6-dichlorophenyl)isoxazol-4-yl)methoxy)-6-fluorophenyl)ethynyl)benzoic acid], the EC50 lay in the range of 0.06 to 0.2 µM and the maximal response (Emax) was more than 100%.
Take `Cc1c(N)cc(C#Cc2ccc(OCc3c(-c4c(Cl)cccc4Cl)noc3C3CC3)cc2Cl)cc1C(=O)O` [Compound I-71, 3-amino-5-((2-chloro-4-((5-cyclopropyl-3-(2,6-dichlorophenyl)isoxazol-4-yl)methoxy)phenyl)ethynyl)-2-methylbenzoic acid]: the EC50 was 0.2 to 1 µM and the Emax was more than 100%.
`CCNC(=O)Nc1cc(C#Cc2ccc(OCc3c(-c4c(Cl)cccc4Cl)noc3C3CC3)cc2Cl)cc(C(=O)O)c1` [Compound I-72, 3-((2-chloro-4-((5-cyclopropyl-3-(2,6-dichlorophenyl)isoxazol-4-yl)methoxy)phenyl)ethynyl)-5-(3-ethylureido)benzoic acid]: the EC50 was 0.2 to 1 µM and the Emax is more than 100%.
Take `CC(=O)Nc1cc(C#Cc2ccc(OCc3c(-c4c(Cl)cccc4Cl)noc3C3CC3)cc2Cl)cc(C(=O)O)c1` [Compound I-73, 3-acetamido-5-((2-chloro-4-((5-cyclopropyl-3-(2,6-dichlorophenyl)isoxazol-4-yl)methoxy)phenyl)ethynyl)benzoic acid]: the concentration giving a half-maximal response (EC50) lay in the range of 0.2 to 1 µM and the Emax was more than 100%.
In the case of `CCOC(=O)Nc1cc(C#Cc2ccc(OCc3c(-c4c(Cl)cccc4Cl)noc3C3CC3)cc2Cl)cc(C(=O)O)c1` [Compound I-74, 3-((2-chloro-4-((5-cyclopropyl-3-(2,6-dichlorophenyl)isoxazol-4-yl)methoxy)phenyl)ethynyl)-5-((ethoxycarbonyl)amino)benzoic acid], the EC50 was not above 0.02 µM and the Emax is more than 100%.
Consider `CCOC(=O)N(C)c1cc(C#Cc2ccc(OCc3c(-c4c(Cl)cccc4Cl)noc3C3CC3)cc2Cl)cc(C(=O)O)c1` [Compound I-75], for which the EC50 was in the range of 0.02 to 0.06 µM and the Emax turned out to be 93%.
In the case of `O=C(Nc1cc(C#Cc2ccc(OCc3c(-c4c(Cl)cccc4Cl)noc3C3CC3)cc2Cl)cc(C(=O)O)c1)OC1CC1` [Compound I-76, 3-((2-chloro-4-((5-cyclopropyl-3-(2,6-dichlorophenyl)isoxazol-4-yl)methoxy)phenyl)ethynyl)-5-((cyclopropoxycarbonyl)amino)benzoic acid], the EC50 was not above 0.02 µM and the Emax was more than 100%.
As for `CN(C(=O)OC(C)(C)C)c1cc(C#Cc2ccc(OCc3c(-c4c(Cl)cccc4Cl)noc3C3CC3)cc2Cl)cc(C(=O)O)c1` [Compound I-78, 3-((tert-butoxycarbonyl)(methyl)amino)-5-((2-chloro-4-((5-cyclopropyl-3-(2,6-dichlorophenyl)isoxazol-4-yl)methoxy)phenyl)ethynyl)benzoic acid], the EC50 was 0.02 to 0.06 µM and the Emax is 89%.
The corresponding values for `O=C(Nc1cc(C#Cc2ccc(OCc3c(-c4c(Cl)cccc4Cl)noc3C3CC3)cc2Cl)cc(C(=O)O)c1)OCCO` [Compound I-81, 3-((2-chloro-((5-cyclopropyl-3-(2,6-dichlorophenyl)isoxazol-4-yl)methoxy)phenyl)ethynyl)-5-(((2-hydroxyethoxy)carbonyl)amino)benzoic acid] are 0.2 to 1 µM and more than 100%.
On to `O=C(O)c1cc(C#Cc2ccc(OCc3c(-c4c(Cl)cccc4Cl)noc3C3CC3)cc2Cl)cc(N2CCOC2=O)c1` [Compound I-83, 3-((2-chloro-4-((5-cyclopropyl-3-(2,6-dichlorophenyl)isoxazol-4-yl)methoxy)phenyl)ethynyl)-5-(2-oxooxazolidin-3-yl)benzoic acid], for which the EC50 fell in the range of 0.02 to 0.06 µM and the maximal effect (Emax) amounted to 89%.
On to `O=C(O)c1cc(C#Cc2ccc(OCc3c(-c4c(Cl)cccc4Cl)noc3C3CC3)cc2Cl)cc(C(=O)O)c1` [Compound I-84, 5-((2-chloro-4-((5-cyclopropyl-3-(2,6-dichlorophenyl)isoxazol-4-yl)methoxy)phenyl)ethynyl)isophthalic acid], for which the EC50 is 0.2 to 1 µM and the Emax turned out to be 98%.
The corresponding values for `CS(=O)(=O)Nc1cc(C#Cc2ccc(OCc3c(-c4c(Cl)cccc4Cl)noc3C3CC3)cc2Cl)cc(C(=O)O)c1` [Compound I-86, 3-((2-chloro-4-((5-cyclopropyl-3-(2,6-dichlorophenyl)isoxazol-4-yl)methoxy)phenyl)ethynyl)-5-(methylsulfonamido)benzoic acid] are 0.06 to 0.2 µM and 100%.
For `O=C(O)c1cccc(C#Cc2ccc(OCc3c(-c4ccccc4C(F)(F)F)noc3C3CC3)cc2Cl)c1` [Compound I-87, 3-((2-chloro-4-((5-cyclopropyl-3-(2-(trifluoromethyl)phenyl)isoxazol-yl)methoxy)phenyl)ethynyl)benzoic acid] the same measures were 0.2 to 1 µM and more than 100%.
Consider `O=C(O)c1cccc(C#Cc2ccc(OCc3c(-c4ccccc4OC(F)(F)F)noc3C3CC3)cc2Cl)c1` [Compound I-88, 3-((2-chloro-4-((5-cyclopropyl-3-(2-(trifluoromethoxy)phenyl)isoxazol-4-yl)methoxy)phenyl)ethynyl)benzoic acid], for which the EC50 fell in the range of 0.2 to 1 µM and the Emax worked out at 97%.
Take `O=C(O)c1cc(C#Cc2ccc(OCc3c(-c4c(Cl)cccc4Cl)noc3C3CC3)cc2Cl)c2nc[nH]c2c1` [Compound I-90, 4-((2-chloro-4-((5-cyclopropyl-3-(2,6-dichlorophenyl)isoxazol-4-yl)methoxy)phenyl)ethynyl)-1H-benzo[d]imidazole-6-carboxylic acid]: the EC50 was in the range of 0.2 to 1 µM and the Emax was determined as 75%.
For `CN(C)CCn1ccc2c(C#Cc3ccc(OCc4c(-c5c(Cl)cccc5Cl)noc4C4CC4)cc3Cl)cc(C(=O)O)cc21` [Compound I-92, 4-((2-chloro-4-((5-cyclopropyl-3-(2,6-dichlorophenyl)isoxazol-4-yl)methoxy)phenyl)ethynyl)-1-(2-(dimethylamino)ethyl)-1H-indole-6-carboxylic acid], the EC50 fell in the range of 0.02 to 0.06 µM and the maximum response (Emax) was found to be 87%.
